# Target: BK channels (CHO cells permanently transfected with cloned hSlo, α-hSlo and β-bSlo) (Homo sapiens, UniProt Q12791)
# Assay: Em-Assay: fluorescence membrane potential assay with voltage sensitive dye DiBAC(4)3
# Format: cell-based
# Conditions: ratio of the compound effect (50 μM) compared to the maximal effect of NS004 (25 or 50 μM)
# Text: The large conductance, voltage-dependent and Ca^2+-activated potassium channel BK is a potassium selective ion channel and belongs to the subfamily of KCa channels. Four BK alpha-subunits form a functional channel that can be regulated by intracellular Ca^2+ concentration, membrane voltage, and other mechanisms like phosphorylation states or beta subunits. To test the biological activity of the compounds, we applied two different techniques, a fluorescence based assay using a voltage sensitive dye (Em-Assay) as well as exploiting electrophysiological methods.
# CHO cells permanently transfected with cloned hSlo (α-hSlo and β-bSlo), yielding typical BK potassium currents (Zhou et al., Pflügers Arch., 436: 725-734 (1998), were used for the evaluation of compound activity. Activation or inhibition of BK channels in these cells leads to a change of the electrochemical gradient causing a hyperpolarized or depolarised membrane potential, respectively.
# To determine changes in the membrane potential of the cells we used the voltage sensitive dye DiBaC(4)3 (Molecular Probes) in a kinetic assay system using a fluorescent plate reader (Manning and Sontheimer, J. Neurosci. Meth., 91: 73-81 (1999). The anionic bis-oxonol DiBAC(4)3 is a voltage sensitive dye which partitions from the extracellular environment into the cell where it reversibly binds to intracellular proteins, a kinetic process depending on the membrane potential of the cell. At depolarised potentials (i.e. at a reduced K^+ efflux due to blocked K^+ channels) the dye accumulates in the cell leading to an increased fluorescence intensity, due to its increased fluorescence if bound to cellular proteins. At hyperpolarized potentials (i.e. at an increased K^+ efflux due to the opening of K^+ channels), the dye partitions out of the cell causing a decreased fluorescence intensity.
# hslo transfected CHO cells where maintained in DMEM supplemented with 10% FCS, 250 μg/ml Geneticin, 100 μg/m Hygromycin, 1×HT-Supplement, and 1×Non-essential Amino Acids and cultured in a humidified CO2 incubator. After trypsination, cells where plated with a density of 5×10^4 cells per well on a clear 96-well plate and incubated for 24 h. Cells where washed once with PBS, once with PBS containing 20 mM HEPES (adjusted to pH 7.4 with NaOH) and 2 μM DiBAC(4)3 (DPBS-DiBAC solution). 180 μl of the dPBS-DiBAC solution was then added to the cells and the plate incubated for 30-60 min at 37° C. During this time the dye could partition into the cells and reach a certain steady-state distribution, depending on the resting membrane potential. Test and reference compounds were stored as DMSO stock solutions and diluted in dPBS-DiBAC solution to the desired concentration.
# Fluorescence intensity (Ex.: 485 nm/Em.: 520 nm) of each well was detected in the plate reader (Fluostar, BMG) every 60 seconds. After recording the baseline fluorescence for 7 minutes, 20 μl test- and reference compounds were added and the fluorescence intensity was detected for additional 15 minutes. Background was subtracted, data values were normalized and expressed as a change in fluorescence intensity against time. The change in fluorescence intensity caused by the test compounds was evaluated, compared to the effect of the reference compound NS004, and the ratio was determined (see Table I).
# BK channels (CHO cells permanently transfected with cloned hSlo, α-hSlo and β-bSlo), sequence (Q12791 whole entry): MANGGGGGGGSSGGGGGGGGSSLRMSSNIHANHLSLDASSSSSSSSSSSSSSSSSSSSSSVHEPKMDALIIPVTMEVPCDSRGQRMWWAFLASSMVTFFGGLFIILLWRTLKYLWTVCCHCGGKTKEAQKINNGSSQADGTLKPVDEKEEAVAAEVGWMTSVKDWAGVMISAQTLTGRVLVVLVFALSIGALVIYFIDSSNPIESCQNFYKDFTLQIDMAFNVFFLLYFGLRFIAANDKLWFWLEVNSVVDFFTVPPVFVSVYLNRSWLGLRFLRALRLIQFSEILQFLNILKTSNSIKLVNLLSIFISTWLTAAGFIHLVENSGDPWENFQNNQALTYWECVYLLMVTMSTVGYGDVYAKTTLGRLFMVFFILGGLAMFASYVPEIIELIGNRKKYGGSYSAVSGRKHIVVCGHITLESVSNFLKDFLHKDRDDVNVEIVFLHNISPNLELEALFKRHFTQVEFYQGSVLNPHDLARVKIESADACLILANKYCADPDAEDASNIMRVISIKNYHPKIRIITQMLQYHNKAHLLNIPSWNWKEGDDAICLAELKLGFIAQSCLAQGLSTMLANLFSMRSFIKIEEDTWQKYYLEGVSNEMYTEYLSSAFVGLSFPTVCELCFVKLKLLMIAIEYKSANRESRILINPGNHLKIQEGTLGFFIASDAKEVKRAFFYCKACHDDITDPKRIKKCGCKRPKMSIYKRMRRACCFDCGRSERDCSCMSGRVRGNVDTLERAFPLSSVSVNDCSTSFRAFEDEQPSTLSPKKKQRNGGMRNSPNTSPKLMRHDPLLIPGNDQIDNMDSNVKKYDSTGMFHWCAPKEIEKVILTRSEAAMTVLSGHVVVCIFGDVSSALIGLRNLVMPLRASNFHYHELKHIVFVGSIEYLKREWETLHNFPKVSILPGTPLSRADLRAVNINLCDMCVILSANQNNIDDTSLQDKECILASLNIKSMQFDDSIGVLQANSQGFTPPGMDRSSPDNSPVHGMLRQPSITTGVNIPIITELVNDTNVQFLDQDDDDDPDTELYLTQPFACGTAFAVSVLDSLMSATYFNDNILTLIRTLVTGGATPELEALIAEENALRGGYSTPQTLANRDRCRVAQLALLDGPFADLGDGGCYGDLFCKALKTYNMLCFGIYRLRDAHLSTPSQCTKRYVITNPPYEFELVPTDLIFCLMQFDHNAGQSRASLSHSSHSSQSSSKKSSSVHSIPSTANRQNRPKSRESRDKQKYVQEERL
# BK channels (CHO cells permanently transfected with cloned hSlo, α-hSlo and β-bSlo), sequence (Q28067 whole entry partner): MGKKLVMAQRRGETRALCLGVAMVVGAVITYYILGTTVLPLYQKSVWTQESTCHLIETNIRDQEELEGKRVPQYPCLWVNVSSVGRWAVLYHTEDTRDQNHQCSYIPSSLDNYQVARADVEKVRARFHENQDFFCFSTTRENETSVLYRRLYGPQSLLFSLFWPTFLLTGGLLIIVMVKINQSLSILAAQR
row,Em effect,Molecule
1,+ (0-1=+),"COc1cc2c(c(OC)c1)C(c1ccc(O)cc1)N(C(=O)c1ccc(-c3ccccc3)cc1)CC2 (stereo not shown) [Compound 15, Biphenyl-4-yl-[1-(4-hydroxy-phenyl)-6,8-dimethoxy-3,4-dihydro-1H-isoquinolin-2-yl]-methanone]"
2,+ (0-1=+),"COc1cc2c(c(OC)c1)C(c1ccc(O)cc1)N(C(=O)c1cnc3ccccc3n1)CC2 (stereo not shown) [Compound 16, [1-(4-Hydroxy-phenyl)-6,8-dimethoxy-3,4-dihydro-1H-isoquinolin-2-yl]-quinoxalin-2-yl-methanone]"
3,+ (0-1=+),"COc1cc2c(c(OC)c1)C(c1ccc(O)cc1)N(C(=O)C1CCCC1)CC2 (stereo not shown) [Compound 19, Cyclopentyl-[1-(4-hydroxy-phenyl)-6,8-dimethoxy-3,4-dihydro-1H-isoquinolin-2-yl]-methanone]"
4,+ (0-1=+),"COc1cc2c(c(OC)c1)C(C)N(C(=O)c1cccc([N+](=O)[O-])c1)CC2 (stereo not shown) [Compound 38, (6,8-Dimethoxy-1-methyl-3,4-dihydro-1H-isoquinolin-2-yl)-(3-nitro-phenyl)-methanone]"
5,+ (0-1=+),"COc1cc2c(c(OC)c1)C(C)N(S(=O)(=O)c1cc(C(F)(F)F)cc(C(F)(F)F)c1)CC2 (stereo not shown) [Compound 37, 2-(3,5-Bis-trifluoromethyl-benzenesulfonyl)-6,8-dimethoxy-1-methyl-1,2,3,4-tetra-hydroisoquinoline]"
6,+ (0-1=+),"COc1cc2c(c(OC)c1)C(c1ccc(-c3ccccc3)cc1)N(C(=O)c1ccc([N+](=O)[O-])cc1)CC2 (stereo not shown) [Compound 2, (1-Biphenyl-4-yl-6,8-dimethoxy-3,4-dihydro-1H-isoquinolin-2-yl)-(4-nitro-phenyl)-methanone]"
7,+ (0-1=+),"COc1cc2c(c(OC)c1)C(c1ccc(O)cc1)N(C(=O)CCCCBr)CC2 (stereo not shown) [Compound 10, 5-Bromo-1-[1-(4-hydroxy-phenyl)-6,8-dimethoxy-3,4-dihydro-1H-isoquinolin-2-yl]-pentan-1-one]"
8,+ (0-1=+),"COc1cc2c(c(OC)c1)C(c1ccc(O)cc1)N(C(=O)c1ccc(C(F)(F)F)cc1)CC2 (stereo not shown) [Compound 20, [1-(4-Hydroxy-phenyl)-6,8-dimethoxy-3,4-dihydro-1H-isoquinolin-2-yl]-(4-trifluoromethyl-phenyl)methanone]"
9,+ (0-1=+),"COc1cc2c(c(OC)c1)C(c1ccc(O)cc1)N(C(=O)c1ccc3c(c1)OCO3)CC2 (stereo not shown) [Compound 26, Benzo[1,3]dioxol-5-yl-[1-(4-hydroxy-phenyl)-6,8-dimethoxy-3,4-dihydro-1H-isoquinolin-2-yl]-methanone]"
10,+ (0-1=+),COc1cc2c(c(OC)c1)C(c1ccc(O)cc1)N(C(=O)CCc1ccccc1)CC2 (stereo not shown) [Compound 12]
11,+ (0-1=+),"COc1cc2c(c(OC)c1)C(c1ccc(O)cc1)N(C(=O)c1ccc(C(C)(C)C)cc1)CC2 (stereo not shown) [Compound 14, (4-tert-Butyl-phenyl)-[1-(4-hydroxy-phenyl)-6,8-dimethoxy-3,4-dihydro-1-H-isoquinolin-2-yl]-methanone]"
12,+ (0-1=+),"COc1cc2c(c(OC)c1)C(c1cccc(OC(F)(F)F)c1)N(S(=O)(=O)c1cc(C(F)(F)F)cc(C(F)(F)F)c1)CC2 (stereo not shown) [Compound 35, 2-(3,5-Bis-trifluoromethyl-benzenesulfonyl)-6,8-dimethoxy-1-(3-trifluoromethoxy-phenyl)-1,2,3,4-tetrahydroisoquinoline]"
13,+ (0-1=+),"COc1cc2c(c(OC)c1)C(c1ccc(O)cc1)N(C(=O)c1cccc(C(F)(F)F)c1)CC2 (stereo not shown) [Compound 18, [1-(4-Hydroxy-phenyl)-6,8-dimethoxy-3,4-dihydro-1H-isoquinolin-2-yl]-(3-trifluoromethyl-phenyl)-methanone]"
14,+ (0-1=+),"COc1cc2c(c(OC)c1)C(C)N(C(=O)c1ccc(OC(F)(F)F)cc1)CC2 (stereo not shown) [Compound 39, (6,8-Dimethoxy-1-methyl-3,4-dihydro-1H-isoquinolin-2-yl)-(4-trifluoro-methoxy-phenyl)-methanone]"
15,+ (0-1=+),"COc1cc2c(c(OC)c1)C(c1ccc(-c3ccccc3)cc1)N(C(=O)c1ccc(C(F)(F)F)cc1F)CC2 (stereo not shown) [Compound 5, (1-Biphenyl-4-yl-6,8-dimethoxy-3,4-dihydro-1H-isoquinolin-2-yl)-(2-fluoro-4-trifluoromethyl-phenyl)-methanone]"
16,+ (0-1=+),"COc1cc2c(c(OC)c1)C(c1ccc(-c3ccccc3)cc1)N(C(=O)c1cccc(Br)c1)CC2 (stereo not shown) [Compound 3, (1-Biphenyl-4-yl-6,8-dimethoxy-3,4-dihydro-1H-isoquinolin-2-yl)-(3-bromo-phenyl) methanone]"
17,+ (0-1=+),"COc1cccc(C(=O)N2CCc3cc(OC)cc(OC)c3C2c2ccc(O)cc2)c1 (stereo not shown) [Compound 9, [1-(4-Hydroxy-phenyl)-6,8-dimethoxy-3,4-dihydro-1H-isoquinolin-2-yl]-(3-methoxy-phenyl)-methanone]"
18,+ (0-1=+),"COc1cc2c(c(OC)c1)C(c1ccc(-c3ccccc3)cc1)N(C(=O)c1ccc(OC(F)(F)F)cc1)CC2 (stereo not shown) [Compound 7, (1-Biphenyl-4-yl-6,8-dimethoxy-3,4-dihydro-1H-isoquinolin-2-yl)-(4-trifluoromethoxy-phenyl)-methanone]"
19,+ (0-1=+),"(3,5-Bis-trifluoromethoxy-phenyl)-[6,8-dimethoxy-1-(3-trifluoromethoxy-phenyl)-3,4-dihydro-1H-iso-quinolin-2-yl]-methanone [Compound 33]"
20,+ (0-1=+),"COc1cc2c(c(OC)c1)C(c1ccc(O)cc1)N(C(=O)c1cccc(OC(F)(F)F)c1)CC2 (stereo not shown) [Compound 11, [1-(4-Hydroxy-phenyl)-6,8-dimethoxy-3,4-dihydro-1H-isoquinolin-2-yl]-(3-trifluoromethoxy-phenyl)-metanone]"
21,+ (0-1=+),"COc1ccc(C(=O)N2CCc3cc(OC)cc(OC)c3C2C)cc1 (stereo not shown) [Compound 40, (6,8-Dimethoxy-1-methyl-3,4-dihydro-1H-isoquinolin-2-yl)-(4-methoxy-phenyl)-methanone]"
22,+ (0-1=+),"COc1cc2c(c(OC)c1)C(c1cccc(OC(F)(F)F)c1)N(S(=O)(=O)c1cc(C(F)(F)F)ccc1[N+](=O)[O-])CC2 (stereo not shown) [Compound 34, 6,8-Dimethoxy-2-(2-nitro-5-trifluoromethyl-benzenesulfonyl)-1-(3-trifluoromethoxy-phenyl)-1,2,3,4-tetrahydro-isoquinoline]"
23,+++ (>1.5=+++),"COc1cc2c(c(OC)c1)C(c1ccc(O)cc1)N(C(=O)CCC1CCCC1)CC2 (stereo not shown) [Compound 21, 3-Cyclopentyl-1-[1-(4-hydroxy-phenyl)-6,8-dimethoxy-3,4-dihydro-1H-isoquinolin-2-yl]-propan-1-one]"
24,+ (0-1=+),"COc1cc2c(c(OC)c1)C(c1ccc(O)cc1)N(C(=O)c1cccs1)CC2 (stereo not shown) [Compound 25, [1-(4-Hydroxy-phenyl)-6,8-dimethoxy-3,4-dihydro-1H-iso-quinolin-2-yl]-thiophen-2-yl-methanone]"
25,+ (0-1=+),"COc1cc2c(c(OC)c1)C(c1ccc(O)cc1)N(C(=O)c1ccno1)CC2 (stereo not shown) [Compound 27, [1-(4-Hydroxy-phenyl)-6,8-dimethoxy-3,4-dihydro-1H-isoquinolin-2-yl]-isoxazol-5-yl-methanone]"
26,+ (0-1=+),"COc1cc2c(c(OC)c1)C(c1ccc(-c3ccccc3)cc1)N(C(=O)c1cc(C(F)(F)F)cc(C(F)(F)F)c1)CC2 (stereo not shown) [Compound 8, (1-Biphenyl-4-yl-6,8-dimethoxy-3,4-dihydro-1H-isoquinolin-2-yl)-(3,5-bis-trifluoromethyl-phenyl)methanone]"
27,+ (0-1=+),"COc1ccc(C(=O)N2CCc3cc(OC)cc(OC)c3C2c2ccc(O)cc2)cc1 (stereo not shown) [Compound 22, [1-(4-Hydroxy-phenyl)-6,8-dimethoxy-3,4-dihydro-1H-isoquinolin-2-yl]-(4-methoxy-phenyl)-methanone]"
28,+ (0-1=+),"COc1cc2c(c(OC)c1)C(c1ccc(O)cc1)N(C(=O)c1cccc3ccccc13)CC2 (stereo not shown) [Compound 17, [1-(4-Hydroxy-phenyl)-6,8-dimethoxy-3,4-dihydro-1H-isoquinolin-2-yl]-naphthalen-1-yl-methanone]"

# — patent US20050070570A1, “Novel potassium channels modulators” (4SC AG, priority 2003, published 2005)
